Data published in PMC3228903 (The FEBS journal, 2011).
Changes are numbered by the printed parent chain. Like-named read-outs stand apart in the source and are kept apart here.

Key:
[1] = target: WT MAO A; details: cited from earlier work; for Ki: WT MAO A
[2] = target: T1, Ile199Ala MAO B (Homo sapiens, UniProt P27338, I199A); test: Steady-state substrate oxidation and pH dependence, Ile199Ala MAO B; assay type: biochemical
T1 sequence (P27338 1-520 I199A): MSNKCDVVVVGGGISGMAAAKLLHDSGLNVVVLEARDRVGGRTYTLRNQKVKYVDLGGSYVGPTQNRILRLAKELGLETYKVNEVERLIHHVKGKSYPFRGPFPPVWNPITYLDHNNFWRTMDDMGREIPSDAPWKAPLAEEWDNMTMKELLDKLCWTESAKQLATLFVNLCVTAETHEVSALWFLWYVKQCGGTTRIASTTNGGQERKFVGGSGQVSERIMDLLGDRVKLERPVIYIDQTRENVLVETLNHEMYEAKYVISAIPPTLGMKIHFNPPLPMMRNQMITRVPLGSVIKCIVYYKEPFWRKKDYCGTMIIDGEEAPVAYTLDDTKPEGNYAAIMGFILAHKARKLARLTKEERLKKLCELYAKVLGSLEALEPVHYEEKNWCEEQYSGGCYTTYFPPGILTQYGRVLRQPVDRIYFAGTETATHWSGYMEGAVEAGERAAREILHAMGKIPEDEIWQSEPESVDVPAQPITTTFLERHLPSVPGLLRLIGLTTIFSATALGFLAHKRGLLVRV

[3] = target: T2, Ile199Ala/Tyr326Ala MAO B (Homo sapiens, UniProt P27338, I199A/Y326A); test: Steady-state substrate oxidation and pH dependence, Ile199Ala/Tyr326Ala MAO B; assay type: biochemical
T2 sequence (P27338 1-520 I199A/Y326A): T1 sequence (P27338 1-520 I199A) with Y326A

[4] = target: T3, WT MAO B (Homo sapiens, UniProt P27338); details: pH 7.5; cited from earlier work
T3 sequence (P27338 1-520): T1 sequence (P27338 1-520 I199A) with A199I

[5] = target: T4, MAO B Ile199Ala-Tyr326Ala (Homo sapiens, UniProt P27338, I199A/Y326A); assay type: biochemical
T4 sequence (P27338 1-520 I199A/Y326A): T1 sequence (P27338 1-520 I199A) with Y326A

[6] = target: T5, MAO B Ile199Ala (Homo sapiens, UniProt P27338, I199A); assay type: biochemical
T5 sequence (P27338 1-520 I199A): T1 sequence (P27338 1-520 I199A)

[7] = target: T3, WT MAO B; test: Inhibition of WT MAO B, Ki from initial rates of substrate oxidation; assay type: biochemical
[8] = target: T3, WT MAO B; test: Steady-state substrate oxidation and pH dependence, WT MAO B; assay type: biochemical; details: pH 7.5
[9] = Ile199Ala-Tyr326Ala double mutant
[10] = Ile199Ala-Tyr326Ala double mutant, pH 9.3
[11] = Ki, Ile199Ala single mutant, pH 7.5

## N[C@@H]1C[C@H]1c1ccccc1 (racemic) [Tranylcypromine]
[1]
  Ki: 19 µM

## NCc1ccccc1 [Benzylamine, benzylamine]
[2]; single mutant
  V/K extrapolated for fully deprotonated free enzyme, of WT activity: 42%
[3]; I199A-Y326A, pH 7.5
  KM: too high to measure
[3]; I199A-Y326A, pH 7.5, no saturation
  2nd order rate: 2nd order rate =: 0.0106 ±0.0002 μM^−1min^−1
[3]; double mutant
  V/K extrapolated for fully deprotonated free enzyme, of WT activity: ~ 5%

## C(=CCc1ccccc1)Cc1ccccc1 [DPB, 1,4-Diphenyl-2-butene]
[4]
  Ki: 34.5 ± 1.4 µM
[5]; [9]
  binding / inhibition in words: no detectable binding
[5]; [10]
  Ki: no inhibition
[6]; [11]
  Ki: 8.1 ± 1.6 µM

## C(C=Cc1ccccc1)=Cc1ccccc1 [DPBD, 1,4-Diphenyl-1,3-butadiene]
[4]
  Ki: 7 ± 0.2 µM
[5]; [9]
  binding / inhibition in words: no detectable binding
[5]; [10]
  Ki: no inhibition
[6]
  Ki: 1 ± 0.03 µM

## CC(C)=CCC/C(C)=C/CC/C(C)=C/CO [Farnesol, trans,trans-farnesol]
[5]
  Ki: 18 ± 3 µM
[5]; [9]
  binding / inhibition in words: weaker binding
[1]; previous work
  binding to human MAO A in words: do not bind
[6]; [11]
  Ki: 2.7 ± 0.4 µM

## Cc1nccc2c1[nH]c1ccccc12 [Harmane, harmane]
[5]
  Ki: 165 ± 17 µM
[1]
  Ki: 0.58 ± 0.02 µM
[7]
  Ki: 140 ± 47 µM
[6]
  Ki: 550 ± 50 µM

## O=C1Nc2ccccc2C1=O [Isatin]
[1]
  Ki: 15 µM

## CN(C)c1ccc2nc3ccc(=[N+](C)C)cc-3sc2c1 [Methylene Blue, methylene blue]
[5]; [9]
  binding / inhibition in words: affinity higher than that observed with WT MAO B

## NCCCCc1ccccc1 [Phenylbutylamine, phenylbutylamine]
[8]
  Km: 19 ± 3 µM
  kcat: 1.83 ± 0.083 s⁻¹
[2]; I199A, pH 7.5
  Km: 8.9 ± 0.7 µM
  kcat: 2.25 ± 0.05 s⁻¹
[3]; I199A-Y326A, pH 7.5
  Km: 55 ± 2 µM
  kcat: 2.37 ± 0.017 s⁻¹

## NCCc1ccccc1 [Phenylethylamine, Phenethylamine]
[2]; single mutant, pH 7.5
  increase in KM relative to WT enzyme: 4 fold
[3]; double mutant, pH 7.5
  KM value higher than WT enzyme: 75 fold

## Cc1ccc2c(c1)c1c3n2CCNC3CCC1 (stereo not shown) [Pirlindole, pirlindole]
[5]
  Ki: 4.1 ± 0.2 µM
[1]
  Ki: 0.92 ± 0.04 µM
[7]; WT MAO B, pH 7.5
  Ki: No inhibition
[7]; WT MAO B, pH 7.5, listed as pirlindole
  Ki: neither MAO B nor the Ile199Ala single mutant are inhibited
[6]; Ile199Ala single mutant, pH 7.5
  Ki: No inhibition
[6]; Ile199Ala single mutant, pH 7.5, listed as pirlindole
  Ki: neither MAO B nor the Ile199Ala single mutant are inhibited

## C[C@H](NCc1ccc(OCc2cccc(F)c2)cc1)C(N)=O [Safinamide]
[5]; double mutant relative to WT MAO B
  weaker affinity than WT MAO B: ~ 10 fold

## NC1CCc2ccccc21 (stereo not shown) [aminoindane]
[5]
  binding / inhibition in words: Weak binding

## CNC1CCc2ccccc21 (stereo not shown) [methylaminoindane]
[5]
  binding / inhibition in words: Weak binding

## NCc1ccc(C(F)(F)F)cc1 [p-CF3-benzylamine]
[2]; single mutant
  V/K extrapolated for fully deprotonated free enzyme, of WT activity: 33%
[3]; double mutant
  V/K extrapolated for fully deprotonated free enzyme, of WT activity: 24%

## NS(=O)(=O)Cc1noc2ccccc12 [zonisamide]
[5]; [9]
  binding / inhibition in words: no detectable inhibition
